Test results published in patent US6048854A, “2,3-diaminopropionic acid derivative” (Sumitomo Pharmaceuticals Company, Limited, priority 1993, dated 2000).
Read-outs that look alike come from different tables or passages of the source.

How the values were obtained:
human vitronectin = experiment: Binding assay of platelet to adhesive protein: vitronectin (receptor binding inhibition); conditions: Table 4; fixed activated human platelets, 37° C., 60 minutes; read-out: receptor binding inhibition (IC50), Bitronectin
Experimental: (§1) The blood was taken out from the elbow vein of a normal volunteer, and mixed with 1/10 volume of 3.8% sodium citrate. The blood was centrifuged at 1,000 rpm (150 g) for 10 minutes, and the supernatant is collected as a platelet rich plasma (PRP). The precipitates are centrifuged at 11,000 rpm (6000 g) for two minutes, and the supernatant is collected as a platelet poor plasma (PPP). To PRP is added prostaglandin I2 (PGl2) at a final concentration of 50 ng/ml, and the mixture was centrifuged at 11000 rpm for two minutes to give human platelet. The platelet was activated by washing with 3.8 mM HEPES-buffer (pH 7.4, Tyrode-HEPES buffer) containing 0.14 M sodium chloride, 2.7 mM potassium chloride, 3.7 mM sodium dihydrogen phosphate, 0.98 mM magnesium chloride, 1 mg/ml glucose, 50 ng/ml PGl2 and 0.35% bovine serum albumin (BSA), adding thereto 5 μM epinephrine, and 30 μM ADP (adenosine diphosphate), followed by being allowed to stand at room temperature for five minutes. To the activated platelet was added 0.05% p-formaldehyde, and the mixture was allowed to stand at room temperature for 30 minutes to give the fixed platelet, which was suspended in Tyrode-HEPES buffer to give a platelet suspension of a concentration of 2×10^8 ml^-1.
(§2) Human fibrinogen from which fibronectin was previously removed by passing through gelatin-cepharose, human fibronectin or human vitronectin was diluted with 0.1 M aqueous sodium hydrogen carbonate solution to a concentration of 5 μg/ml, and the protein solution is put into a 96-well microplate at a volume of 200 μl/well. The microplate was allowed to stand at 4° C. overnight. The plate was washed with phosphate buffered saline (PBS), and subjected to blocking with 3% BSA at 37° C. for one hour. To the plate were added a platelet suspension (final concentration, 10^8 ml^-1) and a test compound of various concentrations (total volume, 200 μl/well), and the plate was incubated at 37° C. for 60 minutes. The plate was treated with 1000-fold diluted enzyme (HRP)-labelled anti-mouse IgG polyclonal antibody at 37° C. for 60 minutes, and thereto was added HRP chromogenic substrate (0.1 M phosphate buffer containing 0.4 mg/ml O-phenylenediamine,0.01% hydrogen peroxide, 0.1 M citric acid, pH 5), and reacted at room temperature for 15 minutes. The reaction was terminated by adding thereto 4.5 M sulfuric acid at a volume of 25 μl/well, and the absorbance at 490 nm was measured.

platelet aggregation [1] = experiment: Platelet aggregation inhibitory activity (ADP-induced, human platelet rich plasma); type: cell-based; conditions: Homo sapiens
Outline: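 Citrated human platelet-rich plasma […] was stirred with test compound for 2 min at 37 °C. Aggregation was then induced with ADP at 3 μg/ml final and monitored by nephelometry. IC50 is the concentration giving 50% inhibition of aggregation.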

human fibronectin = experiment: Binding assay of platelet to adhesive protein: fibronectin (receptor binding inhibition); conditions: Table 4; fixed activated human platelets, 37° C., 60 minutes
Experimental: as §1, §2

human fibrinogen = target: T1, human fibrinogen (Homo sapiens, UniProt P05106+P08514); experiment: Binding assay of platelet to adhesive protein: fibrinogen (receptor binding inhibition); conditions: Table 4; fixed activated human platelets, 37° C., 60 minutes
T1 construct: centrifuged at 11000 rpm for two minutes to give human platelet; from tissue
T1 sequence (P08514 32-887 limits assumed): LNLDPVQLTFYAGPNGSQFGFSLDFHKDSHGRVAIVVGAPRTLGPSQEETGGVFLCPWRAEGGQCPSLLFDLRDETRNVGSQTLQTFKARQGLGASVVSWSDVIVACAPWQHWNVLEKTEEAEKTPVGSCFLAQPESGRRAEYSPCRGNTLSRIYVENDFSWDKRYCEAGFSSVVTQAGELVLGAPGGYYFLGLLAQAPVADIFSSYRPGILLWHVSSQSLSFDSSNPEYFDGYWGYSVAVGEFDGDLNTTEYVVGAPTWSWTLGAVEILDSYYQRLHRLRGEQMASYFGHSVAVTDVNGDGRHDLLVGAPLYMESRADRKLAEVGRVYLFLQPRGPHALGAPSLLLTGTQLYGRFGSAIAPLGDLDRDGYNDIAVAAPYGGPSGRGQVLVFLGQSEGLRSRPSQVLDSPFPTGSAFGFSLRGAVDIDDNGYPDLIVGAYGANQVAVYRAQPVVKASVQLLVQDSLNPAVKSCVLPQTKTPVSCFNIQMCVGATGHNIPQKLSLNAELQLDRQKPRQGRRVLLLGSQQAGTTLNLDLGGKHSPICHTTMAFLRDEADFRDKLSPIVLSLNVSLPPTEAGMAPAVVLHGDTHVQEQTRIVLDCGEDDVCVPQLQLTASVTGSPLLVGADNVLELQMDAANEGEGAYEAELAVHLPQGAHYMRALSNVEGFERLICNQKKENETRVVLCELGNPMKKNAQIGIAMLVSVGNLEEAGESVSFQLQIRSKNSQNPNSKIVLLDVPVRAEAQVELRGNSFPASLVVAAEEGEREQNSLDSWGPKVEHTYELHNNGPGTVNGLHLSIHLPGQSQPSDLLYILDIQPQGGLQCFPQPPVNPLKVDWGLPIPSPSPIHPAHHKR
T1 sequence (P08514 891-1039 limits assumed): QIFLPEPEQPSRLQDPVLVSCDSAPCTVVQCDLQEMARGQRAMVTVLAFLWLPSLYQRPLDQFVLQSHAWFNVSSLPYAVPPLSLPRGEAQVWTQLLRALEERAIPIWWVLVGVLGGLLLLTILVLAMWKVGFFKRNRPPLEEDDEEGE
T1 sequence (P05106 27-788): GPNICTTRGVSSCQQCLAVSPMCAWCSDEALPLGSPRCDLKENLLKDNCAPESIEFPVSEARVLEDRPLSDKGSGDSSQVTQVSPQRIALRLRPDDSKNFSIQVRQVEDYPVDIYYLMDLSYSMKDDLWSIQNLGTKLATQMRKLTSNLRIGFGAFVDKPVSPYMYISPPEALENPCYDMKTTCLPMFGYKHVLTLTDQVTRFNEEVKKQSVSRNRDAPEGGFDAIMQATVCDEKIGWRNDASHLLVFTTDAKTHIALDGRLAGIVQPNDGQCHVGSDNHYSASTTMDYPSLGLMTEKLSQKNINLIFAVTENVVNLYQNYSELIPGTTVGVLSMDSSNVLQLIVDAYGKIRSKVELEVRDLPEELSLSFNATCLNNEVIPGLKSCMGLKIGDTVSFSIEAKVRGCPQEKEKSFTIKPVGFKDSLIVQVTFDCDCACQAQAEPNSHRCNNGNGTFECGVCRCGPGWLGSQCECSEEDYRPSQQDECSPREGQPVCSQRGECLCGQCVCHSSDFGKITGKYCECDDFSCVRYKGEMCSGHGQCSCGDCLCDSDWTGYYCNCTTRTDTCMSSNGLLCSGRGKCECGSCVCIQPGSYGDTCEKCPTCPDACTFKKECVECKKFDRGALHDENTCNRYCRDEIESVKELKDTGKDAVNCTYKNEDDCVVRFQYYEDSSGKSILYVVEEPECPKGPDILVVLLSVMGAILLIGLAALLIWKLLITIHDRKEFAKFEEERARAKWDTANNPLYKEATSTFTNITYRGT
Experimental: as §1, §2

platelet aggregation [2] = experiment: Platelet aggregation inhibitory activity (ex vivo) after oral administration; type: in vivo; conditions: Cavia porcellus, guinea pig, oral 0.1 mg/kg, ADP 10 μg/ml
Outline: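 Guinea pigs dosed orally at 0.1 mg/kg; citrated carotid blood taken before and at 0.5, 1, 2, 4 and 6 h. PRP aggregation induced by ADP (10 μg/ml final) at 37° C, measured turbidimetrically; inhibition = (1 − MAR sample/MAR predose) × 100.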

[3] = Table 3, same manner as Example 17
[4] = 0.5 hr, read-out: platelet aggregation inhibitory rate (%), 0.5 hr
[5] = 1 hr, read-out: platelet aggregation inhibitory rate (%), 1 hr
[6] = 2 hrs, read-out: platelet aggregation inhibitory rate (%), 2 hrs
[7] = 4 hrs, read-out: platelet aggregation inhibitory rate (%), 4 hrs
[8] = 6 hrs, read-out: platelet aggregation inhibitory rate (%), 6 hrs

SMILES	IC50 (human vitronectin)	IC50 (platelet aggregation [1]; [3])	IC50 (human fibronectin)	IC50 (human fibrinogen)	inhibition in vivo at 0.1 mg/kg (platelet aggregation [2]; [4])	inhibition in vivo at 0.1 mg/kg (platelet aggregation [2]; [5])	inhibition in vivo at 0.1 mg/kg (platelet aggregation [2]; [6])	inhibition in vivo at 0.1 mg/kg (platelet aggregation [2]; [7])	inhibition in vivo at 0.1 mg/kg (platelet aggregation [2]; [8])	IC50 (platelet aggregation [1]; Table 2, same manner as Example 17)
N=C(N)c1ccc(CCCCCC(=O)NC[C@H](NS(=O)(=O)c2ccccc2)C(=O)O)cc1 [Example 91, (2S)-3-(6-(4-amidinophenyl)hexanoylamino)-2-benzenesulfonylaminopropanoic Acid]	1300 nM	23 nM	50 nM	4.7 nM	51%	41%	31%	14%	39%	–
Cc1cccc(S(=O)(=O)N[C@@H](CNC(=O)CCNC(=O)c2ccc(C(=N)N)cc2)C(=O)O)c1 [Example 75, (2S)-3-(3-(4-amidinobenzoylamino)propanoylamino)-2-(3-methyl)benzenesulfonylaminopropanoic Acid]	1600 nM	34 nM	110 nM	8.1 nM	74%	82%	100%	90%	74%	–
COc1ccc(S(=O)(=O)N[C@@H](CNC(=O)CCCCOc2ccc(C(=N)N)cc2)C(=O)O)cc1 [Example 63, (2S)-3-(5-(4-amidinophenoxy)pentanoylamino)-2-(4-methoxy)benzenesulfonylaminopropanoic Acid]	130 nM	–	41 nM	2.2 nM	57%	48%	26%	3%	0%	15 nM
N=C(N)c1ccc(C(=O)NCCC(=O)NC[C@H](NS(=O)(=O)c2ccccc2[N+](=O)[O-])C(=O)O)cc1 [Example 77, (2S)-3-(3-(4-amidinobenzoylamino)propanoylamino)-2-(2-nitro)benzenesulfonylaminopropanoic Acid]	670 nM	65 nM	54 nM	6.7 nM	100%	100%	100%	100%	97%	–
Cc1cc(C)c(S(=O)(=O)N[C@@H](CNC(=O)CCCCCc2ccc(C(=N)N)cc2)C(=O)O)c(C)c1 [Example 92, (2S)-3-(6-(4-amidinophenyl)hexanoylamino)-2-(2,4,6-trimethyl)benzenesulfonylaminopropanoic Acid]	500 nM	37 nM	24 nM	3.9 nM	68%	34%	24%	47%	0%	–
COc1ccc(S(=O)(=O)N[C@@H](CNC(=O)CC2CCN(c3ccc(C(=N)N)cc3)CC2)C(=O)O)cc1 [Example 93, (2S)-3-(2-(1-(4-amidinophenyl)-4-piperidyl)ethanoylamino)-2-(4-methoxy)benzenesulfonylaminopropanoic Acid]	3500 nM	93 nM	95 nM	15 nM	4%	27%	69%	44%	12%	–
